Measurements reported in patent US7098218B2, “Steroidal compounds for inhibiting steroid sulphatase” (priority 2001, dated 2006).
Values joined by “and” are separate entries in the source; they are usually repeats but may differ in a detail not shown here. Identical values can stand only once.

Key:
STS = biological target: T1, STS (Homo sapiens, UniProt P08842); experiment: biochemical; settings: STS IC50 (nM), inhibition of E1S→E1; Table 1
T1 construct: can be assessed using either intact MCF-7 breast cancer cells or placental microsomes
T1 sequence (P08842 22-583): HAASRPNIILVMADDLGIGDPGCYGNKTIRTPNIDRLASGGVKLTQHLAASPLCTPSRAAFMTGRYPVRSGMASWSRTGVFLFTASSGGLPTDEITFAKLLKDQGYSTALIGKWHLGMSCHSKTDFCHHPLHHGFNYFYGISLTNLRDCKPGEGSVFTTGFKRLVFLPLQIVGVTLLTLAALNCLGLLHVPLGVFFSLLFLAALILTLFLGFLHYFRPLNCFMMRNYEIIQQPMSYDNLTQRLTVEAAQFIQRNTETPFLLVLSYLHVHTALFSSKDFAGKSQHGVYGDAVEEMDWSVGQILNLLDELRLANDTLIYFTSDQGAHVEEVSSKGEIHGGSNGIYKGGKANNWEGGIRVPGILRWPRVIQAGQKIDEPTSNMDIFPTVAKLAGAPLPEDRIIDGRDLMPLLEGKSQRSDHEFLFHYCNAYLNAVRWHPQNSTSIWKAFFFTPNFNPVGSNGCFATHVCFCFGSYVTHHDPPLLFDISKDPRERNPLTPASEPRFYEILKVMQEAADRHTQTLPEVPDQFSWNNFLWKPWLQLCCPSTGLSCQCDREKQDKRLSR

[1] = biological target: T2, E2DH Type I (HSD Type I) in T47D breast cancer cells (Homo sapiens, UniProt P14061); experiment: Conversion of oestrone to oestradiol in intact T47D cell monolayers (Protocol 7); format: cell-based; settings: T47D, measured at 10 μM, read-out: % Inhibition E1 → E2 ± SD (HSD Type I)
T2 construct: T47D breast cancer cells in which E2HSD Type I activity is abundant; endogenous in cells; host or cells: T47D breast cancer cells
T2 sequence (P14061 2-328 limits assumed): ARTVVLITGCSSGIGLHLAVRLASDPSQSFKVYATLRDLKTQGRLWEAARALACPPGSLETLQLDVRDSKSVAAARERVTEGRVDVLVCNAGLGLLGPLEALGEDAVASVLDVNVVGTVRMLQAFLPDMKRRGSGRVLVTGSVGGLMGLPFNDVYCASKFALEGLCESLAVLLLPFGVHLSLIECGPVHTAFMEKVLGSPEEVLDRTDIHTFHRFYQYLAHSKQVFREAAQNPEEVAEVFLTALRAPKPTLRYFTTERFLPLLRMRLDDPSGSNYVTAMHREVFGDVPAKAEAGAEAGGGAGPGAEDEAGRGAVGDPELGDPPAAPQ
Procedure: (§1) The ability of compounds to inhibit steroid dehydrogenase activity can be assessed using either T47D breast cancer cells in which E2HSD Type I activity is abundant or MDA-MB-231 cells for Type II inhibitor studies. In both cell lines formation of products is linear with respect to time and cell numbers. Details on a suitable Assay Protocol are presented in the Examples section.
(§2) Conversion of oestrone to oestradiol (E1→E2, E2DH Type I) and oestradiol to oestrone (E2→E1, E2DH Type II) was measured in intact cell monolayers of T47D and MDA-MB231 breast cancer cells respectively. Cells were cultured in flasks until they were 80–90% confluent. ^3 H-E1 or ^3H-E2 (6 pmol, ˜90 Ci/mmol) were added to each flask in the absence (control) or presence of various test compounds (10 μM) in 2.5 ml of medium. Substrate was also added to flasks without cells and incubated in parallel (blanks).
(§3) After incubation with T47D cells for 30 min or MDA cells for 3 h at 37° C., 2 ml of the medium was added to test tubes containing ^14C-E2 or ^14C-E1 (˜5000 cpm) and 50 μg E2 or E1 respectively. Steroids were extracted from the aqueous medium with diethyl ether (4 ml). The ether phase was decanted into separate tubes after freezing the aqueous phase in solid carbon dioxide-methanol mixture. The ether was evaporated to dryness under a stream of air at 40° C. The residue was dissolved in a small volume of diethyl ether and applied to TLC plates containing a fluorescent indicator. E1 and E2 were separated by TLC using DCM-Ethyl acetate (4:1 v/v). The position of the product from each incubation flask was marked on the TLC plate after visualisation under UV light. The marked regions were cut out and placed in scintillation vials containing methanol (0.5 ml) to elute the product. The amount of ^3 H-product formed and ^14C-E1 or ^14C-E2 recovered were calculated after scintillation spectrometry. The amount of product formed was corrected for procedural losses and for the number of cells in each flask.

[2] = biological target: T3, E2DH Type II (HSD Type II) in MDA-MB231 breast cancer cells (Homo sapiens, UniProt P37059); experiment: Conversion of oestradiol to oestrone in intact MDA-MB231 cell monolayers (Protocol 7); format: cell-based; settings: MDA-MB-231, measured at 10 μM, read-out: % Inhibition E2 → E1 ± SD (HSD Type II)
T3 construct: endogenous in cells; host or cells: MDA-MB-231 breast cancer cells
T3 sequence (P37059 1-387): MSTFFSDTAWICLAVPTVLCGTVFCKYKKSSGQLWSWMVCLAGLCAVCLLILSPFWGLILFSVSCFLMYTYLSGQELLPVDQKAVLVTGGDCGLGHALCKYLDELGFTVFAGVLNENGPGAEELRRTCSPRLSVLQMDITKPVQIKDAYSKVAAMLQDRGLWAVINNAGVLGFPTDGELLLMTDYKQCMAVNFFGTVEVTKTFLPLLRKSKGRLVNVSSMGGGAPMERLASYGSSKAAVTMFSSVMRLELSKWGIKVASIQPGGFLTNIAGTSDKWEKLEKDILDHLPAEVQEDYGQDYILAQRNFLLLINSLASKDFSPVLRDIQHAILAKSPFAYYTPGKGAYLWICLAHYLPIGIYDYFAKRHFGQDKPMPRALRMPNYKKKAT
Procedure: as §1, §2, §3

[3] = biological target: T4, human placental steroid sulphatase (Homo sapiens, UniProt P08842); experiment: Inhibition of oestrone sulphatase activity in human placental microsomes; format: biochemical
T4 construct: Placental microsomes (100000 g fraction) were prepared from a positive-positive human placenta from a normal-term pregnancy; from tissue; host or cells: human placenta, microsomal fraction
T4 sequence (P08842 22-583): T1 sequence (P08842 22-583)

rat liver STS = biological target: T5, rat liver STS (Rattus norvegicus, UniProt P15589); experiment: Inhibition of oestrone sulphatase activity in vivo, rat liver (Protocol 3); settings: rats; 10 mg/Kg/day for five days orally
T5 construct: samples of liver tissue were obtained and oestrone sulphatase activity assayed; from tissue; host or cells: rat liver
T5 sequence (P15589 20-577): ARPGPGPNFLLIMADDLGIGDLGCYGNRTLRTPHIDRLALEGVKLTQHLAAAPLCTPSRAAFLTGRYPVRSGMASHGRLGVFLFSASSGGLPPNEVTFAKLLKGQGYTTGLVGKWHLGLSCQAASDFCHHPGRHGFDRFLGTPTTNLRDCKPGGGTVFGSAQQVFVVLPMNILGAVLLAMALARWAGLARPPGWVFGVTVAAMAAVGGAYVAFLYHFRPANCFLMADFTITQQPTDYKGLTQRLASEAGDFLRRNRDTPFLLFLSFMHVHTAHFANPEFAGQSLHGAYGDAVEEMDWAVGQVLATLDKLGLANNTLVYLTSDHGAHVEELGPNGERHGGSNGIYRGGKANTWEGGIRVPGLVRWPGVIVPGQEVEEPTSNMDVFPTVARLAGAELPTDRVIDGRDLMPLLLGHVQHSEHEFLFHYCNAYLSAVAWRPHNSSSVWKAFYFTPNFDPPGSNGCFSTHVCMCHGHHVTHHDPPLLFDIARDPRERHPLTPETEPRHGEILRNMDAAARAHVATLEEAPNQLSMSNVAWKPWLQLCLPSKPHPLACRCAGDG
Procedure: The compounds of the present invention may be studied using an animal model, in particular in ovariectomised rats. In this model compounds which are oestrogenic stimulate uterine growth.
The compound (10 mg/Kg/day for five days) was administered orally to rats with another group of animals receiving vehicle only (propylene glycol). A further group received the compound EMATE subcutaneously in an amount of 10 μg/day for five days. At the end of the study samples of liver tissue were obtained and oestrone sulphatase activity assayed using 3 H oestrone sulphate as the substrate as previously described (see PCT/GB95/02638).

[4] = system: ovariectomised rats (uterine growth); experiment: In vivo oestrogenicity, uterine growth in ovariectomised rats (Protocol 4); set-up: species or system rat; settings: 10 mg/Kg/day for five days orally, uterine weight
Procedure: The compounds of the present invention may be studied using an animal model, in particular in ovariectomised rats. In this model, compounds which are oestrogenic stimulate uterine growth.
The compound (10 mg/Kg day for five days) was administered orally to rats with another group of animals receiving vehicle only (propylene glycol). A further group received the estrogenic compound EMATE subcutaneously in an amount of […] for five days. At the end of the study uteri were obtained and weighed with the results being expressed as uterine weight/whole body weight×100.

[5] = read-out: Mean % Inhibition ± SD

## CCCCCN1C(=O)CC2C3CCc4cc(O)ccc4C3CC[C@]2(C)C1=O (some centres unmarked)
other
  melting point: 181 to 184 °C

## CC(C)(C)c1ccc(CN2C(=O)CC3C4CCc5cc(O)ccc5C4CC[C@]3(C)C2=O)cc1 (some centres unmarked)
other
  melting point: 128 to 130 °C

## CCCCN1C(=O)CC2C3CCc4cc(OS(N)(=O)=O)ccc4C3CC[C@]2(C)C1=O (some centres unmarked) [compound 283]
STS
  IC50: 382 nM

## C[C@]12CCC3c4ccc(O)cc4CCC3C1CC(=O)NC2=O (some centres unmarked)
other
  melting point: 297 to 300 °C

## CCCN1C(=O)CC2C3CCc4cc(O)ccc4C3CC[C@]2(C)C1=O (some centres unmarked)
other
  melting point: 183 to 186 °C

## CCCN1C(=O)CC2C3CCc4cc(OS(N)(=O)=O)ccc4C3CC[C@]2(C)C1=O (some centres unmarked) [compound 213]
[1]
  inhibition at 10 µM: 22.5 ± 1.62%
STS
  IC50: 41 nM
[2]
  inhibition at 10 µM: 14.3 ± 14.8%

## CCCN1C(=O)CC2C3CCc4cc(OS(N)(=O)=O)ccc4C3CC[C@]2(C)C1=O (some centres unmarked) [STX 213, 3Sulfamoyl-N-propyl-16,17-seco-estra-1,3,5(10)-triene-16,17-imide]
[3]
  IC50: 1 nM
[3]; [5]
  inhibition at 0.0001 µM: 21.2 ± 0.8%
  inhibition at 0.001 µM: 49.3 ± 1.2%
  inhibition at 0.01 µM: 64.1 ± 4.6%
  inhibition at 0.1 µM: 84.6 ± 1.3%
  inhibition at 1 µM: 96.8 ± 0.8%
  inhibition at 10 µM: 99.3 ± 1.1%
Rat liver STS
  inhibition of rat liver STS (FIG. 3): inhibition of rat liver STS

## C[C@]12CCC3c4ccc(O)cc4CCC3C1CC(=O)N(CCCCBr)C2=O (some centres unmarked)
other
  melting point: 165 to 167 °C

## CN1C(=O)CC2C3CCc4cc(O)ccc4C3CC[C@]2(C)C1=O (some centres unmarked)
other
  melting point: 328 to 330 °C

## C[C@]12CCC3c4ccc(O)cc4CCC3C1CC(=O)N(Cc1ccccc1)C2=O (some centres unmarked)
other
  melting point: 298 to 301 °C

## C=CCN1C(=O)CC2C3CCc4cc(O)ccc4C3CC[C@]2(C)C1=O (some centres unmarked)
other
  melting point: 147 to 149 °C

## CCCN1C(=O)CC2C3CCc4cc(OS(N)(=O)=O)ccc4C3CC[C@]2(C)C1=O (some centres unmarked) [STX213]
[4]
  oestrogenicity (FIG. 2): lack of oestrogenicity

## C[C@]12CCC3c4ccc(OS(N)(=O)=O)cc4CCC3C1CC(=O)N(Cc1cccnc1)C2=O (some centres unmarked) [STX 237, 3-Sulfamoyl-N-(3-picolyl)-16,17-seco-estra-1,3,5(10)-triene-16,17-imide]
[4]
  oestrogenicity (FIG. 2): lack of oestrogenicity
[3]; in vitro
  inhibition of STS (in words): Good inhibition
[3]; ratio of IC50 values versus EMATE
  times more potent than EMATE: 18 times
Rat liver STS
  inhibition of rat liver STS (FIG. 3): inhibition of rat liver STS

## CC(C)(C)c1ccc(CN2C(=O)CC3C4CCc5cc(OS(N)(=O)=O)ccc5C4CC[C@]3(C)C2=O)cc1 (some centres unmarked) [compound 285]
[1]
  inhibition at 10 µM: 22.5 ± 3.72%
STS
  IC50: 23 nM
[2]
  inhibition at 10 µM: 3.56 ± 4.89%

## COc1cc2c(cc1OS(N)(=O)=O)CCC1C2CC[C@]2(C)C(=O)NC(=O)CC12 (some centres unmarked) [compound 326]
[1]
  inhibition at 10 µM: 7.5 ± 12.4%
STS
  IC50: 309 nM
[2]
  inhibition at 10 µM: 15 ± 1.22%

## C[C@]12CCC3c4ccc(O)cc4CCC3C1CC(=O)N(CC1CC1)C2=O (some centres unmarked)
other
  melting point: 238 to 240 °C

## C=CCN1C(=O)CC2C3CCc4cc(OS(N)(=O)=O)ccc4C3CC[C@]2(C)C1=O (some centres unmarked) [compound 280]
STS
  IC50: 75 nM

## CCN1C(=O)CC2C3CCc4cc(OS(N)(=O)=O)ccc4C3CC[C@]2(C)C1=O (some centres unmarked) [compound 281]
[1]
  inhibition at 10 µM: 24.7 ± 2.39%
STS
  IC50: 52 nM and 24 nM and 29 nM
[2]
  inhibition at 10 µM: 20.4 ± 3.14%

## C[C@]12CCC3c4ccc(OS(N)(=O)=O)cc4CCC3C1CC(=O)N(Cc1ccccc1)C2=O (some centres unmarked) [compound 236]
[1]
  inhibition at 10 µM: 20.4 ± 6.25%
STS
  IC50: 280 nM
[2]
  inhibition at 10 µM: 5.84 ± 11.8%

## CCCCCCN1C(=O)CC2C3CCc4cc(OS(N)(=O)=O)ccc4C3CC[C@]2(C)C1=O (some centres unmarked) [compound 282]
STS
  IC50: 288 nM

## CCCCCCN1C(=O)CC2C3CCc4cc(O)ccc4C3CC[C@]2(C)C1=O (some centres unmarked)
other
  melting point: 157 to 159 °C

## CCN1C(=O)CC2C3CCc4cc(O)ccc4C3CC[C@]2(C)C1=O (some centres unmarked)
other
  melting point: 306 to 308 °C

## CCCCCCN1C(=O)CC2C3CCc4cc(O)ccc4C3CC[C@]2(C)C1=O (some centres unmarked) [compound 276]
[1]
  inhibition at 10 µM: 22.7 ± 2.2%
[2]
  inhibition at 10 µM: 8.32 ± 7.5%
